Assay results published in patent US9695155B2, “Herbicidal substituted pyrimidinyloxy benzene compounds” (E. I. DU PONT DE NEMOURS AND COMPANY, priority 2013, dated 2017).

How the values were obtained:
giant foxtail = test: Test C postemergence; format: in vivo, Setaria faberii; conditions: Setaria faberi, post-emergence
Summary of the method: (§1)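 Visual ratings on a 0–100 scale (100 = complete control) were made versus untreated controls after 13–15 greenhouse days. Chemicals in a surfactant-containing non-phytotoxic solvent were applied either preemergence to seeds in loam–sand soil or postemergence to 1- to 4-leaf plants 2–18 cm tall.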

pigweed [1] = test: Test A postemergence; format: in vivo, Amaranthus retroflexus; conditions: Amaranthus retroflexus, post-emergence, 0 to 100 scale, 0 no effect, 100 complete control, read-out: Plant response rating, Pigweed
Summary of the method: (§2)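 Greenhouse pot test, loam/sand soil. Formulation: non-phytotoxic solvent mix plus surfactant. Pre: directed spray onto soil after sowing. Post: plants at 1–2 leaf, 2–10 cm. Rated visually vs untreated controls at ~10 d, 0 (no effect) to 100 (complete control).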

kochia = test: Test C postemergence; format: in vivo, Kochia scoparia; conditions: Bassia scoparia, post-emergence
Summary of the method: as §1

pigweed [2] = test: Test A preemergence; format: in vivo, Amaranthus retroflexus
Summary of the method: as §2

pigweed [3] = test: Test C postemergence; format: in vivo, Amaranthus retroflexus
Summary of the method: as §1

corn [4] = test: Test A postemergence; format: in vivo, Zea mays; conditions: Zea mays, post-emergence, 240 h, 0 to 100 scale, 0 no effect, 100 complete control
Summary of the method: as §2

soybean = test: Test C postemergence; format: in vivo, Glycine max
Summary of the method: as §1

johnsongrass = test: Test C postemergence; format: in vivo, Sorghum halepense
Summary of the method: as §1

Italian ryegrass = test: Test C postemergence; format: in vivo, Lolium multiflorum
Summary of the method: as §1

corn [5] = test: Test C postemergence; format: in vivo, Zea mays; conditions: Zea mays, post-emergence
Summary of the method: as §1

waterhemp = test: Test C postemergence; format: in vivo, Amaranthus rudis
Summary of the method: as §1

wild oat = test: Test C postemergence; format: in vivo, Avena fatua
Summary of the method: as §1

barnyardgrass = test: Test C postemergence; format: in vivo, Echinochloa crus-galli; conditions: Echinochloa crus-galli, post-emergence
Summary of the method: as §1

[6] = 31 g ai/ha, postemergence, visual rating, scale 0 to 100 (0 no effect, 100 complete control), 13 to 15 days

N#Cc1cccc(Oc2ncc(Cl)cn2)c1-n1cc(C(F)F)cn1 [Compound 253, 3-(5-chloropyrimidin-2-yl)oxy-2-[4-(difluoromethyl)-1H-pyrazol-1-yl]benzonitrile]
pest or weed control at 16 g/ha (giant foxtail; 16 g ai/ha, postemergence, 0 is no effect, 100 is complete control, read-out: Plant response rating (0 to 100), Foxtail, Giant): 10% | pest or weed control at 31 g/ha (giant foxtail; 31 g ai/ha, postemergence, visual rating, scale 0 to 100 (0 no effect, 100 complete control), 13 to 15 days, read-out: Foxtail, Giant plant response rating): 45% | pest or weed control at 125 g/ha (giant foxtail; 125 g ai/ha, postemergence, visual rating, scale 0 to 100 (0 no effect, 100 complete control), read-out: Plant response rating, Foxtail, Giant): 20% | pest or weed control at 62 g/ha (giant foxtail; Postemergence, 62 g ai/ha, scale 0 to 100 (0 no effect, 100 complete control), 13 to 15 days, read-out: Plant response rating, Foxtail, Giant): 25% | pest or weed control at 31 g/ha (pigweed [1]; 31 g ai/ha): 90% | pest or weed control at 125 g/ha (pigweed [1]; 125 g ai/ha): 100% | pest or weed control at 16 g/ha (kochia; 16 g ai/ha, postemergence, 0 is no effect, 100 is complete control, read-out: Plant response rating (0 to 100), Kochia): 80% | pest or weed control at 31 g/ha (kochia; 31 g ai/ha, postemergence, visual rating, scale 0 to 100 (0 no effect, 100 complete control), 13 to 15 days, read-out: Kochia plant response rating): 98% | pest or weed control at 125 g/ha (kochia; 125 g ai/ha, postemergence, visual rating, scale 0 to 100 (0 no effect, 100 complete control), read-out: Plant response rating, Kochia): 100% | pest or weed control at 62 g/ha (kochia; Postemergence, 62 g ai/ha, scale 0 to 100 (0 no effect, 100 complete control), 13 to 15 days, read-out: Plant response rating, Kochia): 100% | Pigweed plant response rating (0 to 100 scale) (pigweed [2]; 125 g ai/ha): 100 | pest or weed control at 31 g/ha (pigweed [2]; Amaranthus retroflexus, pre-emergence, 240 h, 31 g ai/ha, 0 to 100 scale where 0 is no effect and 100 is complete control, visual, approximately 10 days, read-out: Plant response rating, Pigweed): 100% | Pigweed plant response rating (pigweed [3]; [6]): 85 | pest or weed control at 16 g/ha (pigweed [3]; Amaranthus retroflexus, post-emergence, 16 g ai/ha, postemergence, 0 is no effect, 100 is complete control, read-out: Plant response rating (0 to 100), Pigweed): 85% | pest or weed control at 125 g/ha (pigweed [3]; Amaranthus retroflexus, post-emergence, 125 g ai/ha, postemergence, visual rating, scale 0 to 100 (0 no effect, 100 complete control), read-out: Plant response rating, Pigweed): 95% | pest or weed control at 62 g/ha (pigweed [3]; Amaranthus retroflexus, post-emergence, Postemergence, 62 g ai/ha, scale 0 to 100 (0 no effect, 100 complete control), 13 to 15 days, read-out: Plant response rating, Pigweed): 98% | Corn plant response rating (crop injury, 0 = no effect, 100 = complete kill) at 31 g/ha (corn [4]; 31 g ai/ha): 20% | Corn plant response rating (crop injury, 0 = no effect, 100 = complete kill) at 125 g/ha (corn [4]; 125 g ai/ha): 60% | Soybean plant response rating (soybean; [6]): 60 | Soybean plant response rating (crop injury, 0-100 scale) at 16 g/ha (soybean; Glycine max, post-emergence, 16 g ai/ha, postemergence, 0 is no effect, 100 is complete control): 40% | Soybean plant response rating (crop injury, 0-100 scale) at 125 g/ha (soybean; Glycine max, post-emergence, 125 g ai/ha, postemergence, visual rating, scale 0 to 100 (0 no effect, 100 complete control), read-out: Plant response rating, Soybean): 90% | Soybean plant response rating (crop injury, 0-100 scale) at 62 g/ha (soybean; Glycine max, post-emergence, Postemergence, 62 g ai/ha, scale 0 to 100 (0 no effect, 100 complete control), 13 to 15 days): 40% | Johnsongrass plant response rating (johnsongrass; [6]): 5 | pest or weed control at 16 g/ha (johnsongrass; Sorghum halepense, post-emergence, 16 g ai/ha, postemergence, 0 is no effect, 100 is complete control, read-out: Plant response rating (0 to 100), Johnsongrass): 0% | pest or weed control at 125 g/ha (johnsongrass; Sorghum halepense, post-emergence, 125 g ai/ha, postemergence, visual rating, scale 0 to 100 (0 no effect, 100 complete control), read-out: Plant response rating, Johnsongrass): 10% | pest or weed control at 62 g/ha (johnsongrass; Sorghum halepense, post-emergence, Postemergence, 62 g ai/ha, scale 0 to 100 (0 no effect, 100 complete control), 13 to 15 days, read-out: Plant response rating, Johnsongrass): 5% | Ryegrass, Italian plant response rating (Italian ryegrass; [6]): 0 | pest or weed control at 16 g/ha (Italian ryegrass; Lolium multiflorum, post-emergence, 16 g ai/ha, postemergence, 0 is no effect, 100 is complete control, read-out: Plant response rating (0 to 100), Ryegrass, Italian): 0% | pest or weed control at 125 g/ha (Italian ryegrass; Lolium multiflorum, post-emergence, 125 g ai/ha, postemergence, visual rating, scale 0 to 100 (0 no effect, 100 complete control), read-out: Plant response rating, Ryegrass, Italian): 0% | pest or weed control at 62 g/ha (Italian ryegrass; Lolium multiflorum, post-emergence, Postemergence, 62 g ai/ha, scale 0 to 100 (0 no effect, 100 complete control), 13 to 15 days, read-out: Plant response rating, Ryegrass, Italian): 0% | plant injury at 16 g/ha (corn [5]; 16 g ai/ha, postemergence, 0 is no effect, 100 is complete control, read-out: Plant response rating (0 to 100), Corn): 5% | plant injury at 31 g/ha (corn [5]; 31 g ai/ha, postemergence, visual rating, scale 0 to 100 (0 no effect, 100 complete control), 13 to 15 days, read-out: Corn plant response rating): 5% | Corn plant response rating (crop injury, 0 = no effect, 100 = complete kill) at 125 g/ha (corn [5]; 125 g ai/ha, postemergence, visual rating, scale 0 to 100 (0 no effect, 100 complete control)): 25% | Corn plant response rating (crop injury, 0 = no effect, 100 = complete kill) at 62 g/ha (corn [5]; Postemergence, 62 g ai/ha, scale 0 to 100 (0 no effect, 100 complete control), 13 to 15 days): 5% | Waterhemp plant response rating (waterhemp; [6]): 75 | pest or weed control at 16 g/ha (waterhemp; Amaranthus tuberculatus, post-emergence, 16 g ai/ha, postemergence, 0 is no effect, 100 is complete control, read-out: Plant response rating (0 to 100), Waterhemp): 75% | pest or weed control at 125 g/ha (waterhemp; Amaranthus tuberculatus, post-emergence, 125 g ai/ha, postemergence, visual rating, scale 0 to 100 (0 no effect, 100 complete control), read-out: Plant response rating, Waterhemp): 85% | pest or weed control at 62 g/ha (waterhemp; Amaranthus tuberculatus, post-emergence, Postemergence, 62 g ai/ha, scale 0 to 100 (0 no effect, 100 complete control), 13 to 15 days, read-out: Plant response rating, Waterhemp): 80% | Oat, Wild plant response rating (wild oat; [6]): 0 | pest or weed control at 16 g/ha (wild oat; Avena fatua, post-emergence, 16 g ai/ha, postemergence, 0 is no effect, 100 is complete control, read-out: Plant response rating (0 to 100), Oat, Wild): 0% | pest or weed control at 125 g/ha (wild oat; Avena fatua, post-emergence, 125 g ai/ha, postemergence, visual rating, scale 0 to 100 (0 no effect, 100 complete control), read-out: Plant response rating, Oat, Wild): 10% | pest or weed control at 62 g/ha (wild oat; Avena fatua, post-emergence, Postemergence, 62 g ai/ha, scale 0 to 100 (0 no effect, 100 complete control), 13 to 15 days, read-out: Plant response rating, Oat, Wild): 10% | pest or weed control at 16 g/ha (barnyardgrass; 16 g ai/ha, postemergence, 0 is no effect, 100 is complete control, read-out: Plant response rating (0 to 100), Barnyardgrass): 5% | pest or weed control at 31 g/ha (barnyardgrass; 31 g ai/ha, postemergence, visual rating, scale 0 to 100 (0 no effect, 100 complete control), 13 to 15 days, read-out: Barnyardgrass plant response rating): 5% | pest or weed control at 125 g/ha (barnyardgrass; 125 g ai/ha, postemergence, visual rating, scale 0 to 100 (0 no effect, 100 complete control), read-out: Plant response rating, Barnyardgrass): 20% | pest or weed control at 62 g/ha (barnyardgrass; Postemergence, 62 g ai/ha, scale 0 to 100 (0 no effect, 100 complete control), read-out: Plant response rating, Barnyardgrass): 10%
